Source: publication PMC6044933 (ACS Omega, 2017)
Where a name gives a salt, the structure may show the parent alone. Read-outs that look alike come from different tables or passages of the source. Each block holds one compound with its values, some of them ahead of it.

How the values were obtained:
Experiment in all cases: cells
[1] = tested on: Du145; conditions: Homo sapiens, DU-145, 72 h
[2] = tested on: A431; conditions: Homo sapiens, A-431, 72 h
[3] = tested on: H460; conditions: Homo sapiens, NCI-H460, 72 h
[4] = tested on: MCF-7; conditions: Homo sapiens, MCF7, 72 h
[5] = tested on: SJ-G2; conditions: SJ-G2, 72 h
[6] = tested on: SMA; conditions: SMA, 72 h
[7] = tested on: MCF10A; conditions: Homo sapiens, MCF-10A, 72 h
[8] = tested on: A2780; conditions: Homo sapiens, A2780, 72 h
[9] = tested on: BE2-C; conditions: Homo sapiens, BE(2)-C, 72 h
[10] = tested on: HT29; conditions: Homo sapiens, HT-29, 72 h
[11] = tested on: MIA; conditions: 72 h
[12] = tested on: U87; conditions: Homo sapiens, U-87 MG, 72 h

SMILES: CCNC(=O)Nc1ccc(OC/C=C\COc2ccc(CCN)cc2)cc1 [13i, (Z)-2-(4-((4-(4-(3-Ethylureido)phenoxy)but-2-en-1-yl)oxy)phenyl)ethan-1-aminium]
GI50 ([1]; read-out: 13i): 13 ± 0.41 µM
GI50 ([2]; read-out: 13i): 17 ± 0.75 µM
GI50 ([3]; read-out: 13i): 21 ± 2.1 µM
GI50 ([4]; read-out: 13i): 17 ± 0.82 µM
GI50 ([5]; read-out: 13i): 24 ± 2.6 µM
GI50 ([6]; read-out: 13i): 28 ± 4.4 µM
GI50 ([7]; read-out: 13i): 19 ± 0.5 µM
GI50 ([8]; read-out: 13i): 18 ± 0.91 µM
GI50 ([9]; read-out: 13i): 18 ± 3.2 µM
GI50 ([10]; read-out: 13i): 15 µM
GI50 ([11]; read-out: 13i): 28 ± 0.82 µM
GI50 ([12]; read-out: 13i): 29 ± 1.4 µM

SMILES: CCNC(=O)Nc1ccc(OCCCCOc2ccc(NC(=O)NCC)cc2)cc1 [compound 1]
GI50 ([1]; read-out: 1): > 50 µM
GI50 ([2]; read-out: 1): > 50 µM
GI50 ([3]; read-out: 1): > 50 µM
GI50 ([4]; read-out: 1): > 50 µM
GI50 ([5]; read-out: 1): > 50 µM
GI50 ([6]; read-out: 1): > 50 µM
GI50 ([7]; read-out: 1): > 50 µM
GI50 ([8]; read-out: 1): > 50 µM
GI50 ([9]; read-out: 1): > 50 µM
GI50 ([10]; read-out: 1): > 50 µM
GI50 ([11]; read-out: 1): > 50 µM
GI50 ([12]; read-out: 1): > 50 µM

SMILES: O=C(O)c1ccc(OC/C=C\COc2ccc(C(=O)O)cc2)cc1 [compound 18, (Z)-4,4′-(But-2-ene-1,4-diylbis(oxy))dibenzoic Acid]
GI50 ([1]; read-out: 18): > 50 µM
GI50 ([2]; read-out: 18): > 50 µM
GI50 ([3]; read-out: 18): > 50 µM
GI50 ([4]; read-out: 18): > 50 µM
GI50 ([5]; read-out: 18): > 50 µM
GI50 ([6]; read-out: 18): > 50 µM
GI50 ([7]; read-out: 18): > 50 µM
GI50 ([8]; read-out: 18): > 50 µM
GI50 ([9]; read-out: 18): > 50 µM
GI50 ([10]; read-out: 18): > 50 µM
GI50 ([11]; read-out: 18): > 50 µM
GI50 ([12]; read-out: 18): > 50 µM

SMILES: N=C(N)NN=Cc1ccc(OC/C=C\COc2ccc(C=NNC(=N)N)cc2)cc1 [compound 22]
GI50 ([1]; read-out: 22): 1.7 ± 0.12 µM
GI50 ([2]; read-out: 22): 2.2 ± 0.11 µM
GI50 ([3]; read-out: 22): 2.2 ± 0.065 µM
GI50 ([4]; read-out: 22): 2.3 ± 0.1 µM
GI50 ([5]; read-out: 22): 1.8 ± 0.048 µM
GI50 ([6]; read-out: 22): 2.9 µM
GI50 ([7]; read-out: 22): 2.8 ± 0.15 µM
GI50 ([8]; read-out: 22): 2.4 ± 0.14 µM
GI50 ([9]; read-out: 22): 2.3 ± 0.13 µM
GI50 ([10]; read-out: 22): 2.1 ± 0.05 µM
GI50 ([11]; read-out: 22): 2.4 ± 0.14 µM
GI50 ([12]; read-out: 22): 2 ± 0.1 µM

Second part, led by results:

GI50 ([1]; read-out: 8e): > 50 µM
GI50 ([2]; read-out: 8e): > 50 µM
GI50 ([3]; read-out: 8e): > 50 µM
GI50 ([4]; read-out: 8e): > 50 µM
GI50 ([8]; read-out: 8e): > 50 µM
GI50 ([10]; read-out: 8e): > 50 µM
GI50 ([11]; read-out: 8e): > 50 µM
GI50 ([12]; read-out: 8e): > 50 µM
SMILES: Nc1ccc(OC/C=C\COc2ccc(N)cc2)cc1 [8e, (Z)-4,4′-(But-2-ene-1,4-diylbis(oxy))dianiline hydrochloride]
GI50 ([5]; read-out: 8e): > 50 µM
GI50 ([6]; read-out: 8e): > 50 µM
GI50 ([7]; read-out: 8e): > 50 µM
GI50 ([9]; read-out: 8e): > 50 µM

GI50 ([1]; read-out: 10a): > 50 µM
GI50 ([2]; read-out: 10a): > 50 µM
GI50 ([3]; read-out: 10a): > 50 µM
GI50 ([4]; read-out: 10a): > 50 µM
GI50 ([8]; read-out: 10a): > 50 µM
GI50 ([10]; read-out: 10a): > 50 µM
GI50 ([11]; read-out: 10a): > 50 µM
GI50 ([12]; read-out: 10a): > 50 µM
SMILES: CCNC(=O)Nc1ccc(OCCCOc2ccc(NC(=O)NCC)cc2)cc1 [10a, N,N′-[1,3-Propanediylbis(oxy-4,1-phenylene)]bis(N-ethyl)urea]
GI50 ([5]; read-out: 10a): > 50 µM
GI50 ([6]; read-out: 10a): > 50 µM
GI50 ([7]; read-out: 10a): > 50 µM
GI50 ([9]; read-out: 10a): > 50 µM

GI50 ([1]; read-out: 10b): > 50 µM
GI50 ([2]; read-out: 10b): > 50 µM
GI50 ([3]; read-out: 10b): > 50 µM
GI50 ([4]; read-out: 10b): > 50 µM
GI50 ([8]; read-out: 10b): > 50 µM
GI50 ([10]; read-out: 10b): > 50 µM
GI50 ([11]; read-out: 10b): > 50 µM
GI50 ([12]; read-out: 10b): > 50 µM
SMILES: CCNC(=O)Nc1ccc(OCCCCCOc2ccc(NC(=O)NCC)cc2)cc1 [10b, N,N′-[1,5-Pentanediylbis(oxy-4,1-phenylene)]bis(N-ethyl)urea]
GI50 ([5]; read-out: 10b): > 50 µM
GI50 ([6]; read-out: 10b): > 50 µM
GI50 ([7]; read-out: 10b): > 50 µM
GI50 ([9]; read-out: 10b): > 50 µM

GI50 ([1]; read-out: 10e): > 50 µM
GI50 ([2]; read-out: 10e): > 50 µM
GI50 ([3]; read-out: 10e): > 50 µM
GI50 ([4]; read-out: 10e): > 50 µM
GI50 ([8]; read-out: 10e): > 50 µM
GI50 ([10]; read-out: 10e): > 50 µM
GI50 ([11]; read-out: 10e): > 50 µM
GI50 ([12]; read-out: 10e): > 50 µM
SMILES: CCNC(=O)Nc1ccc(OC/C=C\COc2ccc(NC(=O)NCC)cc2)cc1 [10e, (Z)-1,1′-((But-2-ene-1,4-diylbis(oxy))bis(4,1-phenylene))bis(3-ethylurea)]
GI50 ([5]; read-out: 10e): > 50 µM
GI50 ([6]; read-out: 10e): > 50 µM
GI50 ([7]; read-out: 10e): > 50 µM
GI50 ([9]; read-out: 10e): > 50 µM
